# Results: paper PMC9828538, “Antigiardial Activity of Novel Guanidine Compounds” (Chemmedchem, 2022)
# Structures can show the parent of a compound that is named as a salt. Where two headings read alike, the source gives them in different places.
# Tests used:
# [1] = test system: Giardia duodenalis trophozoites (BAH2c2 strain); assay: Resazurin reduction assay on Giardia trophozoites in vitro; assay type: cell-based; conditions: for Antigiardial activity MLC (24 h): minimum lethal concentration; for Selectivity ratio: higher ratios = more selective; for Antigiardial activity at 5 h: 25 μM
# Description: Biology Materials and Methods:
# Metronidazole was sourced from sigma.
# Chemicals used for the culture of Giardia in vitro were sourced as follows: glucose and L-cysteine (ACROS organics, Thermo Fisher Scientific, Scoresby, Vic), Ammonium Iron (III) citrate, ascorbic Acid (Sigma -aldrich, Castle Hill, NSW), potassium dihydrogen orthophosphate (UNIVAR, Ingleburn, NSW), bovine bi le (Fluka analytical (BD)), di-potassium hydrogen orthophosphate (Fronine laboratory supplies, Riverstone, NSW).
# G. duodenalis (BAH2c2 strain) was cultivated according to the method of Clark and Diamond in Keister’s modified TYI-S-33 medium, supplemented with heat inactivated foetal bovine serum (Hyclone™, Thermo Scientific, Scoresby, Vic) at 37°C in plastic 9 mL screw-capped test tubes (nunc). Subcultures were performed once a confluent monolayer was observed, approximately 2 – 3 times per week (Clark and Diamond, 2002).
# (§1) CaCo-2 cells, a human cell line derived from a primary colonic tumour, were sourced from Cellbank Australia and were maintained in MEM supplemented with 2 mM glutamine, 1% non-essential amino acids and 10% FCS (Thermo Scientific). Cells were passaged when confluent, approximately 1-2 times per week. Vero cells were also obtained from Cellbank Australia and maintained as above.
# In vitro drug efficacy assays
# Resazurin Reduction Assay […]
# tested to identify the IC50 and minimum lethal concentration (MLC). For all assays the media of confluent cultures was replaced with fresh media and the cultures were placed on ice for 40 minutes to detach trophozoites.
# Trophozoites were enumerated using a haemocytometer and 50 000 trophozoites were added to each test well of a 96 well plate. Either single concentrations (final concentration 25 μM) for the screening assay or tripling dilutions […]
# wells. The assays were repeated in triplicate with metronidazole and a DMSO (vehicle only) used as controls. Plates were incubated under anaerobic conditions (anaerogen sachet, Thermofisher scientific) for 5 or 24 hours at 37°C following which the viability of treated cells was determined using the resazurin reduction assay (Benere et al., 2007). The media was removed and replaced with an equal volume of warm PBS. Resazurin (Sigma) was then added at 10% of the total volume of the wells. Plates were further incubated for colour development and absorbance read at 570 nm and 630 nm. Resazurin reduction was calculated according to the following formula: […]
# (§2) CaCo-2 or Vero cells, maintained as outlined above, were collected via trypsinisation and enumerated using trypan blue and a haemocytometer. Select analogues were prepared in DMSO so that the final concentration in the assay was 25 μM. 1 X 10^5 cells/ml were added to each assay with the appropriate drug dilution. Assays were completed in 96 well plates and incubated for 24 hours at 37°C, 5% CO2 in a humidified incubator. After incubation cells were […]
# (§3) washed with warm PBS before the addition of 10% resazurin in PBS. Assays were incubated to allow colour development and absorbance read at 630 and 570nm. Activity of the analogues against mammalian cells was calculated according to the formula stated above.
# Vero cells = assay: In vitro cytotoxicity, Vero cells; conditions: 25 μM, 24 h; for Toxicity (Y/N): Vero cells, Table 4 (toxic if >10 % cells affected)
# Experimental: (§4) Biology Materials and Methods: […]
# as §1
# (§5) In vitro drug efficacy assays […]
# (§6) The media was removed and replaced with an equal volume of warm PBS. Resazurin (Sigma) was then added at 10% of the total volume of the wells. Plates were further incubated for colour development and absorbance read at 570 nm and 630 nm. Resazurin reduction was calculated according to the following formula: […]
# CaCo-2 or Vero cells, maintained as outlined above, were collected via trypsinisation and enumerated using trypan blue and a haemocytometer. Select analogues were prepared in DMSO so that the final concentration in the assay […]
# in 96 well plates and incubated for 24 hours at 37°C, 5% CO2 in a humidified incubator. After incubation cells were […]
# washed with warm PBS before the addition of 10% resazurin in PBS. Assays were incubated to allow colour development and absorbance read at 630 and 570nm. Activity of the analogues against mammalian cells was calculated according to the formula stated above. […]
# reduction assay the mean and standard error of the mean was determined with each assay completed in triplicate.
# The IC50 was calculated using the log (inhibitor) vs. normalised response – variable slope function in Graphpad […]
# CaCo-2 cells = conditions: human, 24 h, 25 μM
# Experimental: as §4, §1, §5
# as §6, with “2007). The” for “The”
# as §2, §3
# Giardia = test system: Giardia; design: method as in PMID 14585063; conditions: drug treatment of Giardia infection; cited from earlier work
# [2] = Giardia duodenalis, 24 h, read-out: Antigiardial activity IC50 (24 h)
# [3] = 24 h, read-out: Antigiardial activity IC50 (24 h)
# [4] = toxicity tested at 25 μM vs 5 h IC50, Table 4
# [5] = Giardia duodenalis, 5 h, read-out: Antigiardial activity IC50 (5 h)
smiles,measurement,setting,value
COc1cccc(C=NNC(=N)NN=Cc2cccc(OC)c2)c1 [Compound 25],IC50,[1]; [2],> 25000 nM
COc1ccccc1C=NNC(=N)NN=Cc1ccccc1OC.Cl [Compound 26],Antigiardial activity MLC (24 h),[1]; 24 h,>25 µM
same,IC50,[1]; [3],> 25000 nM
N=C(NN=Cc1ccc(O)cc1)NN=Cc1ccc(O)cc1 [Compound 27],IC50,[1]; [2],> 25000 nM
N=C(NN=Cc1cccc(O)c1)NN=Cc1cccc(O)c1 [Compound 28],IC50,[1]; [2],> 25000 nM
N=C(NN=Cc1ccccc1O)NN=Cc1ccccc1O [Compound 29],IC50,[1]; [2],> 25000 nM
"N=C(NN=Cc1ccc(OC(F)(F)F)cc1)NN=Cc1ccc(OC(F)(F)F)cc1 [Compound 30, 2,2′‐bis{[4‐(trifluoromethoxy)phenyl]methylene}carbonimidic dihydrazide hydrochloride]",IC50,[1]; [2],200 nM
CSc1ccc(C=NNC(=N)NN=Cc2ccc(SC)cc2)cc1 [Compound 31],IC50,[1]; [2],900 nM
"N=C(NN=Cc1ccc(SC(F)(F)F)cc1)NN=Cc1ccc(SC(F)(F)F)cc1 [Compound 32, 2,2′‐bis{[4‐(trifluoromethylsulfanyl)phenyl]methylene}carbonimidic dihydrazide hydrochloride]",IC50,[1]; [2],200 nM
CN(C)c1ccc(C=NN=C(N)NN=Cc2ccc(N(C)C)cc2)cc1 [Compound 33],Antigiardial activity MLC (24 h),[1]; 24 h,25 µM
same,IC50,[1]; [3],1100 nM
Cl.N=C(NN=Cc1ccc(Cl)cc1Cl)NN=Cc1ccc(Cl)cc1Cl [Compound 34],Toxicity (% growth control),Vero cells; Percent Vero cell growth,55.8±4.3%
same,Toxicity (Y/N),Vero cells,Y (compounds are indicated as toxic if >10 % cells are affected)
same,Selectivity ratio,[1]; [4],>10.0
Cl.N=C(NN=Cc1cc(F)ccc1F)NN=Cc1cc(F)ccc1F [Compound 37],Antigiardial activity at 5 h,[1]; 5 h,inactive
Cl.N=C(NN=Cc1c(F)c(F)c(F)c(F)c1F)NN=Cc1c(F)c(F)c(F)c(F)c1F [Compound 39],Antigiardial activity at 5 h,[1]; 5 h,inactive
CC(=O)Nc1cc(Cl)ccc1C=NNC(=N)NN=Cc1ccc(Cl)cc1NC(C)=O.Cl [Compound 40],Toxicity (% growth control),CaCo-2 cells,83.1±4.4%
same,IC50,[1]; [5],800 nM
same,Selectivity ratio,[1]; [4],>31.3
COc1cc(C=NNC(=N)NN=Cc2cc(Br)c(OC)c(OC)c2)cc(Br)c1OC.Cl [Compound 42],Toxicity (Y/N),Vero cells,Y^[e] (compounds are indicated as toxic if >10 % cells are affected)
same,IC50,[1]; [5],2700 nM
same,Selectivity ratio,[1]; [4],>9.3
COc1ccc(C=NNC(=N)NN=Cc2ccc(OC)c(OC)c2)cc1OC [Compound 44],IC50,"[1]; 5 h, read-out: Antigiardial activity IC50 (5 h)",24900 nM
same,IC50,[1]; [5],≤ 25000 nM
COc1cc(C=NNC(=N)NN=Cc2ccc(O)c(OC)c2)ccc1O [Compound 47],IC50,[1]; [5],> 25000 nM
"Cc1ncc([N+](=O)[O-])n1CCO [Metronidazole, metronidazole, reference compound]",treatment success / reported efficacy,Giardia,80–90%
same,Antigiardial activity at 5 h,[1]; 5 h,inactive
same,IC50,[1]; [2],3800 nM
same,MIC,"[1]; Giardia duodenalis, 24 h, minimum inhibitory concentration, read-out: Antigiardial activity MIC (24 h)",8.3 µM
same,Selectivity ratio,"[1]; toxicity tested at 25 μM vs 24 h IC50, Tables 1-3",>6.6
CCCSc1ccc2nc(NC(=O)OC)[nH]c2c1 [albendazole],treatment success / reported efficacy,Giardia,62–95%
CCS(=O)(=O)CCn1c([N+](=O)[O-])cnc1C [tinidazole],treatment success / reported efficacy,Giardia,80–90%
